Test results taken from ChEMBL document CHEMBL1155088, “A new sesquiterpene lactone from the roots of Saussurea lappa: structure-anticancer activity study” (Bioorg Med Chem Lett, 2008).
Converted amounts (≈) assume the structure as drawn. The source made the active and inactive calls. The calls are words filed in the database; no cut-off is given here.

Experiments:
Type in all cases: functional, cell-based
[1] = tested on: MCF7; assay: Cytotoxicity against human MCF7 cells after 48 hrs by MTT assay; settings: MCF7, 48 h
[2] = tested on: COLO 205; assay: Cytotoxicity against human COLO205 cells after 48 hrs by MTT assay; settings: for IC50: COLO 205, 48 h
[3] = tested on: A-431; assay: Cytotoxicity against human A431 cells after 48 hrs by MTT assay
[4] = tested on: A549; assay: Cytotoxicity against human A549 cells after 48 hrs by MTT assay

SMILES	IC50 [1] [µg/mL]	IC50 [2] [µg/mL]	Activity [3]	Activity [4]	Activity [2]	IC50 ([3]; A-431, 48 h) [µg/mL]	IC50 ([4]; A549, 48 h) [µg/mL]
C=C1CCC[C@]2(C)CC[C@@H]3[C@H](OC(=O)[C@H]3COC)[C@@H]12	88.5 (≈ 335 µM)	110 (≈ 415 µM)	inactive	inactive			
COC[C@@H]1C(=O)O[C@H]2[C@H]1CC[C@@]1(C)CCCC(=O)[C@H]21	103 (≈ 388 µM)		inactive	inactive	inactive		
COC[C@@H]1C(=O)O[C@H]2[C@H]1CC[C@@]1(C)CCCC3(OCOO3)[C@H]21 (some centres undefined)	180 (≈ 577 µM)		inactive	inactive	inactive		
C=C1C(=O)O[C@@H]2/C=C(\C)CCC[C@H](C)CC[C@H]12 [ISODIHYDROCOSTUNOLIDE]	35 (≈ 150 µM)	27 (≈ 115 µM)				107 (≈ 457 µM)	125 (≈ 533 µM)
C/C1=C\[C@H]2OC(=O)[C@@H](C)[C@@H]2CC/C(C)=C/CC1 [DIHYDRO COSTUNOLIDE]	57.9 (≈ 247 µM)	134 (≈ 572 µM)	inactive	inactive			
COC[C@@H]1C(=O)O[C@@H]2/C=C(\C)CC/C=C(\C)CC[C@@H]12	75 (≈ 284 µM)	220 (≈ 832 µM)	inactive	inactive			
